Data reported in patent US9090671B2, “Macrocyclic peptides” (Scynexis, Inc., priority 2008, dated 2015).
pEC50: −log10 of the molar value.

Columns and labels:
[1] = test system: HCV RNA replicon ET (luc ubi neo/ET); experiment: HCV RNA replicon luciferase assay in human hepatoma cell line ET; format: cell-based; details: Hepatitis C virus, 72 hours, read-out: EC50, effective concentration that reduced viral replication by 50% (HCV RNA replicon derived LUC activity)
Method: Representative compounds of the present invention were tested for activity against HCV using the methods adapted from those described by Kriger et al., 2001, Journal of Virology 75:4614-4624, Pietschmann et al., 2002, Journal of Virology, 76:4008-4021, and using HCV RNA constructs as described in U.S. Pat. No. 6,630,343. Compounds were examined in the human hepatoma cell line ET (lub ubi neo/ET), a HCV RNA replicon containing a stable luciferase (LUC) reporter. The HCV RNA replicon ET contains the 5′ end of HCV (with the HCV Internal Ribosome Entry Site (IRES) and the first few amino acids of the HCV core protein) which drives the production of a firefly luciferase (LUC), ubiquitin, and neomycin phosphotransferase (NeoR) fusion protein. Ubiquitin cleavage releases the LUC and NeoR proteins. The EMCV IRES element controls the translation of the HCV […] NS3-NS5. The NS3 protein cleaves the HCV polyprotein to release the mature NS3, NS4A, NS4B, NS5A and NS5B proteins that are required for HCV replication. At the 3′ end of the replicon is the authentic 3′ NTR of HCV. The activity of the LUC reporter is directly proportional to HCV replication levels and positive-control antiviral compounds produce a reproducible antiviral response using the LUC endpoint.
The compounds were dissolved in DMSO at five half-log concentrations each, ranging from either 0.03 to 3 μM or 1 to 100 μM. Subconfluent cultures of the ET line were plated out into 96 well plates dedicated for the analysis of cell numbers (cytotoxicity) or antiviral activity and the next day the compounds were added to the appropriate wells. […] Compound EC50 and EC90 values were derived from HCV RNA levels assessed as HCV RNA replicon derived LUC activity. Cytotoxicity was expressed as IC50 and IC90, the concentration of compound that inhibited cell viability by 50% and 90%, respectively. Compound IC50 and IC90 values were calculated using a colorimetric assay as an indication of cell numbers and cytotoxicity. The activity of the LUC reporter is directly proportional to HCV RNA levels in the human cell line. The HCV-replicon assay was validated in parallel experiments using interferon-alpha-2b as a positive control. Cyclosporine was also tested by way of comparison.

cyclophilin D = cyclophilin D (Homo sapiens, UniProt P30405); experiment: Cyclophilin binding competitive ELISA (cyclophilin D); details: human recombinant cyclophilin, read-out: EC50, concentration required to achieve 50% inhibition, against cyclophilin D
cyclophilin D, sequence (P30405 30-207): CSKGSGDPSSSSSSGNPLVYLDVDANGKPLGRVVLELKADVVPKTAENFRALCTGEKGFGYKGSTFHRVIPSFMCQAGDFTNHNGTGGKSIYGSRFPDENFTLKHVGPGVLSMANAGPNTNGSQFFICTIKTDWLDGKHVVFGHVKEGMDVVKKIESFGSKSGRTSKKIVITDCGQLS
Method: (§1) The cyclophilin inhibition binding of compounds disclosed herein is determined using a competitive ELISA adapted from the methods described by Quesniaux et al. (Eur. J. Immunol., 1987, 17:1359-1365). Activated ester of succinyl spacers bound to D-Lys^8-cyclosporine A (D-Lys^8-Cs) are coupled to bovine serum albumin (BSA) through D-lysyl residue in position 8. BSA is dissolved in 0.1 M borate buffer, pH 9.0 (4 mg in 1.4 ml). A hundredfold molar excess of D-Lys^8-Cs dissolved in dimethyl formamide (0.6 ml) is added drop wise to the BSA under vigorous stirring.
(§2) Microtiter Plates are coated with D-Lys^8-Cs-BSA conjugate (2 μg/ml in PBS for 24 hours at 4° C.). Plates are washed with Tween®/PBS and with PBS alone. To block nonspecific binding, 2% BSA/PBS (pH 7.4) is added to the wells and allowed to incubate for 2 hours at 37° C. […] Cyclophilin is detected with anti-cyclophilin rabbit antiserum diluted in 1% BSA containing PBS and incubates overnight at 4° C. […] Bound rabbit antibodies are then detected by goat anti-rabbit IgG conjugated to alkaline phosphatase diluted in 1% BSA-PBS and allowed to incubate for 2 hours at 37° C. […] After incubation with 4-nitrophenyl phosphate (1 g/l in diethanolamine buffer, pH 9.8) for 1 to 2 hours at 37° C., the enzymatic reaction is measured spectrophotometrically at 405 nm using a spectrophotometer. […]

cyclophilin A = cyclophilin A (Homo sapiens, UniProt P62937); experiment: Cyclophilin binding competitive ELISA (cyclophilin A); details: human recombinant cyclophilin, read-out: EC50, concentration required to achieve 50% inhibition, against cyclophilin A
cyclophilin A, sequence (P62937 whole entry): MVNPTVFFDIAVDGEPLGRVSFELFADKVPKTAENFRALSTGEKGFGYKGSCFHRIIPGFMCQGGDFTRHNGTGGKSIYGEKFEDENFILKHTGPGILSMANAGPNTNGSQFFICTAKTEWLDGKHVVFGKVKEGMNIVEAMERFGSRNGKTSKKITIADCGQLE
Method: as §1, §2

cyclophilin B = cyclophilin B (Homo sapiens, UniProt P23284); experiment: Cyclophilin binding competitive ELISA (cyclophilin B); details: human recombinant cyclophilin, read-out: EC50, concentration required to achieve 50% inhibition, against cyclophilin B
cyclophilin B, sequence (P23284 34-216): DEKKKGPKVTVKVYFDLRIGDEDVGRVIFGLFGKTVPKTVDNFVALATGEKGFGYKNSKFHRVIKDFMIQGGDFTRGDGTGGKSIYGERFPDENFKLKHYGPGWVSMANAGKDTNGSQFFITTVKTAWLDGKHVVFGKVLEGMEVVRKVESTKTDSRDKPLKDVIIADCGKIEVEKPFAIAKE
Method: as §1, §2

Compound: CC=CCC(C)C(O)C1C(=O)NC(CC)C(=O)N(C)C(SCCN(C)C)C(=O)N(C)C(CC(C)C)C(=O)N(Cc2ccccc2)C(C(C)C)C(=O)N(C)C(CC(C)C)C(=O)NC(C)C(=O)NC(C)C(=O)N(C)C(CC(C)C)C(=O)N(C)C(CC(C)C)C(=O)N(C)C(C(C)C)C(=O)N1C [Compound 1, [(R)-2-(N,N-Dimethylamino)ethylthio-Sar]^3-(N-benzyl)-Val^5-cyclosporine A]
- pEC50 [1]: > 6.00

Compound: C/C=C/C[C@@H](C)[C@@H](O)[C@H]1C(=O)N[C@@H](CC)C(=O)N(C)C(SC)C(=O)N(C)[C@@H](CC(C)C)C(=O)N(Cc2ccccc2)[C@@H](C(C)C)C(=O)N(C)[C@@H](CC(C)C)C(=O)N[C@@H](C)C(=O)N[C@H](C)C(=O)N(C)[C@@H](CC(C)C)C(=O)N(C)[C@@H](CC(C)C)C(=O)N(C)[C@@H](C(C)C)C(=O)N1C (some centres unmarked) [Compound 4, [Methylthio-Sar]^3-(N-benzyl)-Val^5-cyclosporine A]
- pEC50 [1]: > 6.00
- pEC50 (cyclophilin D): < 6.22

Compound: CC=CCC(C)C(O)C1C(=O)NC(CC)C(=O)N(C)C(SCCC)C(=O)N(C)C(CC(C)C)C(=O)N(Cc2ccccc2)C(C(C)C)C(=O)N(C)C(CC(C)C)C(=O)NC(C)C(=O)NC(C)C(=O)N(C)C(CC(C)C)C(=O)N(C)C(CC(C)C)C(=O)N(C)C(C(C)C)C(=O)N1C (centres unmarked) [Compound 5, [n-Propylthio-Sar]^3-(N-benzyl)-Val^5-cyclosporine A]
- pEC50 (cyclophilin A): < 6.22
- pEC50 (cyclophilin B): < 6.22
- pEC50 [1]: < 6.00
- pEC50 (cyclophilin D): < 6.22

Compound: CC=CCC(C)C(O)C1C(=O)NC(CC)C(=O)N(C)C(OC)C(=O)N(C)C(CC(C)C)C(=O)N(Cc2ccccc2)C(C(C)C)C(=O)N(C)C(CC(C)C)C(=O)NC(C)C(=O)NC(C)C(=O)N(C)C(CC(C)C)C(=O)N(C)C(CC(C)C)C(=O)N(C)C(C(C)C)C(=O)N1C (centres unmarked) [Compound 6, [Methoxy-Sar]^3-(N-benzyl)-Val^5-cyclosporine A]
- pEC50 [1]: > 6.00

Compound: CC=CCC(C)C(O)C1C(=O)NC(CC)C(=O)N(C)C(OC)C(=O)N(C)C(CC(C)C)C(=O)N(Cc2cccc(C(F)(F)F)c2)C(C(C)C)C(=O)N(C)C(CC(C)C)C(=O)NC(C)C(=O)NC(C)C(=O)N(C)C(CC(C)C)C(=O)N(C)C(CC(C)C)C(=O)N(C)C(C(C)C)C(=O)N1C (centres unmarked) [Compound 7, [Methoxy-Sar]^3-(3-trifluoromethylbenzyl)-Val^5-cyclosporine A]
- pEC50 [1]: > 6.00

Compound: C=CCN1C(=O)C(CC(C)C)N(C)C(=O)C(OC)N(C)C(=O)C(CC)NC(=O)C(C(O)C(C)CC=CC)N(C)C(=O)C(C(C)C)N(C)C(=O)C(CC(C)C)N(C)C(=O)C(CC(C)C)N(C)C(=O)C(C)NC(=O)C(C)NC(=O)C(CC(C)C)N(C)C(=O)C1C(C)C (centres unmarked) [Compound 8, [Methoxy-Sar]^3-(N-allyl)-Val^5-cyclosporine A]
- pEC50 [1]: > 6.00

Compound: CC=CCC(C)C(O)C1C(=O)NC(CC)C(=O)N(C)C(OC)C(=O)N(C)C(CC(C)C)C(=O)N(CC=CC)C(C(C)C)C(=O)N(C)C(CC(C)C)C(=O)NC(C)C(=O)NC(C)C(=O)N(C)C(CC(C)C)C(=O)N(C)C(CC(C)C)C(=O)N(C)C(C(C)C)C(=O)N1C (centres unmarked) [Compound 9, [Methoxy-Sar]^3-(N-but-2-enyl)-Val^5-cyclosporine A]
- pEC50 [1]: > 6.00

Compound: CC=CCC(C)C(O)C1C(=O)NC(CC)C(=O)N(C)C(OC)C(=O)N(C)C(CC(C)C)C(=O)N(CC=C(C)C)C(C(C)C)C(=O)N(C)C(CC(C)C)C(=O)NC(C)C(=O)NC(C)C(=O)N(C)C(CC(C)C)C(=O)N(C)C(CC(C)C)C(=O)N(C)C(C(C)C)C(=O)N1C (centres unmarked) [Compound 10, [Methoxy-Sar]^3-(N-3-methyl-but-2-enyl)-Val^5-cyclosporine A]
- pEC50 [1]: > 6.00

Compound: CC=CCC(C)C(O)C1C(=O)NC(CC)C(=O)N(C)C(OC)C(=O)N(C)C(CC(C)C)C(=O)N(CC=CCOCc2ccccc2)C(C(C)C)C(=O)N(C)C(CC(C)C)C(=O)NC(C)C(=O)NC(C)C(=O)N(C)C(CC(C)C)C(=O)N(C)C(CC(C)C)C(=O)N(C)C(C(C)C)C(=O)N1C (stereo not drawn) [Compound 11, [Methoxy-Sar]^3-N-(trans-4-benzyloxy-but-2-enyl)-Val^5-cyclosporine A]
- pEC50 [1]: > 6.00

Compound: CC=CCC(C)C(O)C1C(=O)NC(CC)C(=O)N(C)C(SC)C(=O)N(C)C(CC(C)C)C(=O)N(CC=CCO)C(C(C)C)C(=O)N(C)C(CC(C)C)C(=O)NC(C)C(=O)NC(C)C(=O)N(C)C(CC(C)C)C(=O)N(C)C(CC(C)C)C(=O)N(C)C(C(C)C)C(=O)N1C (stereo not drawn) [Compound 14, [Methylthio-Sar]^3-N-[trans-4-hydroxy-but-2-enyl]-Val^5-cyclosporine A]
- pEC50 [1]: > 6.00

Compound: CC=CCC(C)C(O)C1C(=O)NC(CC)C(=O)N(C)C(OC)C(=O)N(C)C(CC(C)C)C(=O)N(CC=CCO)C(C(C)C)C(=O)N(C)C(CC(C)C)C(=O)NC(C)C(=O)NC(C)C(=O)N(C)C(CC(C)C)C(=O)N(C)C(CC(C)C)C(=O)N(C)C(C(C)C)C(=O)N1C (stereo not drawn) [Compound 15, [Methoxy-Sar]^3-N-[trans-4-hydroxy-but-2-enyl]-Val^5-cyclosporine A]
- pEC50 [1]: > 6.00

Compound: CC=CCC(C)C(O)C1C(=O)NC(CC)C(=O)N(C)C(SC)C(=O)N(C)C(CC(C)C)C(=O)N(CC=CCN(C)C)C(C(C)C)C(=O)N(C)C(CC(C)C)C(=O)NC(C)C(=O)NC(C)C(=O)N(C)C(CC(C)C)C(=O)N(C)C(CC(C)C)C(=O)N(C)C(C(C)C)C(=O)N1C (stereo not drawn) [Compound 16, [Methylthio-Sar]^3-N-[trans-4-dimethylamino-but-2-enyl]-Val^5-cyclosporine A]
- pEC50 [1]: > 6.00

Compound: CC=CCC(C)C(O)C1C(=O)NC(CC)C(=O)N(C)C(OC)C(=O)N(C)C(CC(C)C)C(=O)N(CC=CCN(C)C)C(C(C)C)C(=O)N(C)C(CC(C)C)C(=O)NC(C)C(=O)NC(C)C(=O)N(C)C(CC(C)C)C(=O)N(C)C(CC(C)C)C(=O)N(C)C(C(C)C)C(=O)N1C (stereo not drawn) [Compound 17, [Methoxy-Sar]^3-N-[trans-4-dimethylamino-but-2-enyl]-Val^5-cyclosporine A]
- pEC50 [1]: > 6.00
